Literature values as cited in patent US20250360058A1, “IN SITU FORMED CATIONIC ACP GEL FOR TREATMENT OF TOOTH […]” (KONINKLIJKE PHILIPS N.V., priority 2022, published 2025).

Settings: between pH 6.5-8.0

| SMILES | positively charged basic side chains |
| --- | --- |
| N=C(N)NCCC[C@H](N)C(=O)O [Arginine, arginine] | 100% |
| NCCCC[C@H](N)C(=O)O [Lysine, lysine] | 100% |
